For experiment [1], the target named is T1, polyamine binding site of the NR2B subunit of the NMDA receptor (Homo sapiens, UniProt Q05586+Q13224).
T1 construct: host or cells: mouse L(tk-) cells; expression induced with dexamethasone, then membrane homogenate prepared
The experiment is described as follows: Filtration-based receptor binding assay with [3H]-Ifenprodil, NR2B subunit. Particulars: membranes of L(tk-) cells expressing NR1-1a/NR2B, Ki by Cheng-Prusoff, mean ± SEM, read-out: affinity to the NR2B binding site of the NMDA receptor. As to the method:
The determination was performed using a filtration-based receptor binding assay on 96-well-multiplates for the polyamine binding site of the NR2B subunit of the NMDA receptor using [^3H]-Ifenprodil as radioligand.
Mouse L(tk-) cells stably transfected with the dexamethasone-inducible eukaryotic expression vectors pMSG NR1-1a, pMSG NR2B in a 1:5 ratio were a generous gift from D. […] Steinhilber (Department of Pharmacy, University of Frankfurt, Germany). The transformed L(tk-) cells were grown in Modified Earl's Medium (MEM) containing 10% of standardized FCS (Biochrom AG, Berlin, Germany). The expression of the NMDA receptor at the cell surface was induced after the cell density of the adherent growing cells had reached approximately 90% of confluency. […]
For the binding assay, the cell pellet was resuspended in PBS buffer and the number of cells was determined using an improved Neubauer's counting chamber (VWR, Darmstadt, Germany). […]
The competitive binding assay was performed with the radioligand [^3H]-Ifenprodil (60 Ci/mmol; Perkin Elmer) using standard 96-well-multiplates (Diagonal, Muenster, Germany). […] The bound radioactivity trapped on the filters was counted in the scintillation analyzer (Microbeta Counter, Perkin Elmer). […] The non-specific binding was determined with 10 μM unlabeled Ifenprodil. […]

For the next experiment, the target named is T2, σ1 receptor (Cavia porcellus, UniProt Q60492).
T2 construct: Five guinea pig brains (Harlan Winkelmann, Borchen, Germany) were homogenized; tissue Harlan Winkelmann, Borchen, Germany; host or cells: guinea pig brain membrane preparation
T2 sequence (Q60492 whole entry): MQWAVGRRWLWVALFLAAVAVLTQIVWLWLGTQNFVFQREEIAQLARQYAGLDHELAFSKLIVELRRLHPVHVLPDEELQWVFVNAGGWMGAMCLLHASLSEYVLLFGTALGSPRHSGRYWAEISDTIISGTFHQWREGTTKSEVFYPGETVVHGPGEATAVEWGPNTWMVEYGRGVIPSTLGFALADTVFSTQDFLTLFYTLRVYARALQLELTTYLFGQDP
The experiment is described as follows: Binding assay with [3H]-(+)-pentazocine, σ1 receptor. Particulars: guinea pig brain membranes, read-out: affinity to the σ1 receptor. How it is done:
Five guinea pig brains (Harlan Winkelmann, Borchen, Germany) were homogenized with the potter (500-800 rpm, 10 up-and-down strokes) in 6 volumes of cold 0.32 M sucrose. […] This procedure was repeated twice.
The incubation was terminated by rapid filtration through the presoaked filtermats using a cell harvester.

1 compound from US20180250308A1, “NR2B SELECTIVE NMDA-RECEPTOR ANTAGONISTS FOR TREATMENT OF IMMUNE-MEDIATED INFLAMMATORY DISEASES” (WESTFALISCHE WILHELMS-UNIVERSITAT MUNSTER, priority 2015, published 2018) can be followed below.

Structures are written as SMILES.

T1 sequence (Q13224 27-1484, other chains not shown): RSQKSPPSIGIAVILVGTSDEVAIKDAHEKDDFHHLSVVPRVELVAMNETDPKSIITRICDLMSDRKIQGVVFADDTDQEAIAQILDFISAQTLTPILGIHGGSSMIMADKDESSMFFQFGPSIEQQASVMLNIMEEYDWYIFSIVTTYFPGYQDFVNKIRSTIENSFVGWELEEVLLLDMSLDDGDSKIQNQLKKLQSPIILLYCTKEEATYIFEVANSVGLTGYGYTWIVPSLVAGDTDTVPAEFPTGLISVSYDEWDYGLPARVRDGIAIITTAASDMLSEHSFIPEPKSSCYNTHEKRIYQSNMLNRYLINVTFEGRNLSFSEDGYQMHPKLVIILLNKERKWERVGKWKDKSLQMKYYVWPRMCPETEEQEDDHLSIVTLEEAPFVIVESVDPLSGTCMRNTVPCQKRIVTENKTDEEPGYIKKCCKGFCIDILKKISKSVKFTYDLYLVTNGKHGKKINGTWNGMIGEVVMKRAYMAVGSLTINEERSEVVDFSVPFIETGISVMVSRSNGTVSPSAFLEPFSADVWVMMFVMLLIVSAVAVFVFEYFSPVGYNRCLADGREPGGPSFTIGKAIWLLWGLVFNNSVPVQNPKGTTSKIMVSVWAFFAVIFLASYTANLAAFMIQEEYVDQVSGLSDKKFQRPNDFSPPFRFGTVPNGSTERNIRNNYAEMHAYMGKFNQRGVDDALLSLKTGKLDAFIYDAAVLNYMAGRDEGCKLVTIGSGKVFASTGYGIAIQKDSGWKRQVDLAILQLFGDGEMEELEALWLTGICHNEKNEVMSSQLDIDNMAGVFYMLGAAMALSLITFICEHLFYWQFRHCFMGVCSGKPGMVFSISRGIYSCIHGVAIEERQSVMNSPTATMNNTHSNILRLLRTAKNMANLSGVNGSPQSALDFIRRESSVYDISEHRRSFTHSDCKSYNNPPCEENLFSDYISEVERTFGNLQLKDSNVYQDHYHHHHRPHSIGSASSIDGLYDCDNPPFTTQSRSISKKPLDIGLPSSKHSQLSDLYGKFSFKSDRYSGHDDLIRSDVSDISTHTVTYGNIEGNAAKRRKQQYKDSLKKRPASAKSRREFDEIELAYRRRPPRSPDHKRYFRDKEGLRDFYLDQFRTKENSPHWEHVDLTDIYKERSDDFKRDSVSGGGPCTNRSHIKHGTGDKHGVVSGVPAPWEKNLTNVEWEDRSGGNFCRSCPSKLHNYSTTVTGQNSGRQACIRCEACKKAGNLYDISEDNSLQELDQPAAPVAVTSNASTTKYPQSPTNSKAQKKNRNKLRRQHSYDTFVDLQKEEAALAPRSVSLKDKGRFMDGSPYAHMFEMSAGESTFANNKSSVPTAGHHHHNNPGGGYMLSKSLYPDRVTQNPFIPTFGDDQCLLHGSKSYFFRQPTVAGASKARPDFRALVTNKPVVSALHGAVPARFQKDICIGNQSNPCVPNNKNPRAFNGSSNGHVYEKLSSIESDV

As to `COc1ccc2c(c1)CCN(CCCCc1ccccc1)CC2O` (centres unmarked) [formula (4)], the Ki in experiment [1] is 15.3 ± 1.2 nM; on σ1 receptor, 194 nM.
